From US9758524B2, “4-imidazopyridazin-1-yl-benzamides as Btk inhibitors” (Merck Sharp & Dohme B.V., priority 2011, dated 2017) come the findings set out here.

For one assay, the target named is Lyn enzyme (Homo sapiens (Human), UniProt P07948). The assay is described as follows: Lyn enzyme activity (IMAP fluorescence polarization assay). The following applies: read-out: EC50 Lyn activity values, 60 min pre-incubation, 2 μM ATP, bin bound in μM. Background: Polarisation of emitted light reports the rotation of a fluorescent probe.
A further assay addresses FynT enzyme (Homo sapiens (Human), UniProt P06241). The assay is described as follows: FynT enzyme activity (IMAP fluorescence polarization assay). In kind it is biochemical. The following applies: 60 min pre-incubation, 0.2 μM ATP. As to the method:
FynT enzyme activity is measured using the IMAP (immobilized metal ion affinity-based fluorescence polarization) assay as outlined below.
Test compounds and FynT enzyme are pre-incubated 60 minutes at room temperature, before adding 5 μL/well of 400 nM Fluorescin labeled substrate peptide (p34cdc2 substrate peptide, e.g. #R7157/#R7172, Molecular Devices) in KR-buffer. Final peptide substrate concentration in assay is 100 nM. […] Following incubation for 2 h at room temperature the enzyme reaction is stopped by adding 40 μL/well IMAP Progressive Binding Solution (according to suppliers (Molecular Devices) protocol using 75% 1× buffer A and 25% 1× buffer B with 1:600 Progressive Binding Solution). After 60 min incubation at room temperature in the dark the FP signal is read. […] Values are calculated as percentage of the difference in readout (ΔmPi) of the controls with and without ATP. EC50 values are determined by curve fitting of the experimental results using Activity Base.

The target in a further assay is Btk enzyme (His-Btk) (Homo sapiens (Human), UniProt Q06187). The assay is described as follows: Btk enzyme activity (IMAP fluorescence polarization assay).
The target in another assay is Src enzyme (Homo sapiens (Human), UniProt P12931). The assay is described as follows: Src enzyme activity (IMAP fluorescence polarization assay). The following applies: read-out: EC50 Src activity values; IMAP, 60 min pre-incubation, 4 μM ATP.
Another assay deals with Lck enzyme (Homo sapiens (Human), UniProt P06239). The assay is described as follows: Lck enzyme activity (IMAP fluorescence polarization assay). The following applies: read-out: EC50 Lck activity values; IMAP, 60 min pre-incubation, 6 μM ATP; bin bound in μM.
Where [1] appears, read: read-out: EC50 Btk activity values, IMAP, 60 min pre-incubation, 5 μM ATP, bin bound in nM.
Where [2] appears, read: IMAP, 60 min pre-incubation, 5 μM ATP, bin bound in nM.
The mark [3] stands for this setting: IMAP, 60 min pre-incubation, 5 μM ATP, bin bound in μM.

Like-named read-outs stand apart in the source and are kept apart here.

Sequence of Btk enzyme (His-Btk) (Q06187 whole entry): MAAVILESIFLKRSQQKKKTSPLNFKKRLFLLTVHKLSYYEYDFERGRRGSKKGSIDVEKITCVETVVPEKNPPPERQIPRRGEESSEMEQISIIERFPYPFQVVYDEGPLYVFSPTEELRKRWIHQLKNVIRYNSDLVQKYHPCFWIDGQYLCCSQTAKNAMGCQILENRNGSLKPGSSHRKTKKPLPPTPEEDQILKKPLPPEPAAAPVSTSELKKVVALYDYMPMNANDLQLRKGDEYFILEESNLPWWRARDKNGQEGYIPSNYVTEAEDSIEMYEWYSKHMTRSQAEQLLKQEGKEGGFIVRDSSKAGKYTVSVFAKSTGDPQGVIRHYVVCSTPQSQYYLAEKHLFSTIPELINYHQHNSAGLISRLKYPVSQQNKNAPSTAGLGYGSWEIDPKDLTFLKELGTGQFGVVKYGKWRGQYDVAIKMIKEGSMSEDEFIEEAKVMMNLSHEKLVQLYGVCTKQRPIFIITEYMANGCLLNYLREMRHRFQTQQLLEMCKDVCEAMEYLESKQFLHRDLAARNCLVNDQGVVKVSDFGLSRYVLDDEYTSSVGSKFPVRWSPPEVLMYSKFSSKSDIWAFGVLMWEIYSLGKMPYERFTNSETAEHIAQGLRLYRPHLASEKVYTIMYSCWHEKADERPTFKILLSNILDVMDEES
Sequence of FynT enzyme (P06241 other isoform, or with tags, fused parts or gaps): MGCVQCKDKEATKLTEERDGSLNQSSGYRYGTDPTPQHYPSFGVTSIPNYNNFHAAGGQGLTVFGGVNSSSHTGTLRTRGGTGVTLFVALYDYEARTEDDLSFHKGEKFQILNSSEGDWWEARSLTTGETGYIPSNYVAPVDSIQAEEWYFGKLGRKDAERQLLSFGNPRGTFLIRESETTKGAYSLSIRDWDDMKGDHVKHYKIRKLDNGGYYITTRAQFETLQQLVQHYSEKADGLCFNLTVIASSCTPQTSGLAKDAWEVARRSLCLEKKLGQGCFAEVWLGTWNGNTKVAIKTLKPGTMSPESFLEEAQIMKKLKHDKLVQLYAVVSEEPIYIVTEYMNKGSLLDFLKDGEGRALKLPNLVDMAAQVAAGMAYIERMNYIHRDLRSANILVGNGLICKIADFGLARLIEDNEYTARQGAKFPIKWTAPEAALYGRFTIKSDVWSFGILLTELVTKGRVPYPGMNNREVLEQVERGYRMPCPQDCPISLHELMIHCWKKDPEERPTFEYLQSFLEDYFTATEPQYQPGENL
Sequence of Src enzyme (P12931 whole entry, looked up): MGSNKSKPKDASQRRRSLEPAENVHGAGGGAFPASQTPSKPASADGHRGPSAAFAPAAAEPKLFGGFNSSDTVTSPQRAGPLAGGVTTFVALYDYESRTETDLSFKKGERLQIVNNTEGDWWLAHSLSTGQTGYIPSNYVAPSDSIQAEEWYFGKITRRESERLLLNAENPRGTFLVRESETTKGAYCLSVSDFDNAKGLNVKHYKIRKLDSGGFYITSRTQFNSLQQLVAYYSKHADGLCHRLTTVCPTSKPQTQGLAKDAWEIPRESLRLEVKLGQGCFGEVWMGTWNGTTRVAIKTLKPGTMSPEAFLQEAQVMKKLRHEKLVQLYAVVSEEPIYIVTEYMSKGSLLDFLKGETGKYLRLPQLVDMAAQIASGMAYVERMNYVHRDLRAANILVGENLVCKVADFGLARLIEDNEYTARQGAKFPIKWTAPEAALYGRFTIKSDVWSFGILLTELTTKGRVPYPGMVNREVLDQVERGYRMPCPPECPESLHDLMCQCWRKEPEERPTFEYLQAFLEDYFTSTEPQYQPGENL
Sequence of Lyn enzyme (P07948 whole entry): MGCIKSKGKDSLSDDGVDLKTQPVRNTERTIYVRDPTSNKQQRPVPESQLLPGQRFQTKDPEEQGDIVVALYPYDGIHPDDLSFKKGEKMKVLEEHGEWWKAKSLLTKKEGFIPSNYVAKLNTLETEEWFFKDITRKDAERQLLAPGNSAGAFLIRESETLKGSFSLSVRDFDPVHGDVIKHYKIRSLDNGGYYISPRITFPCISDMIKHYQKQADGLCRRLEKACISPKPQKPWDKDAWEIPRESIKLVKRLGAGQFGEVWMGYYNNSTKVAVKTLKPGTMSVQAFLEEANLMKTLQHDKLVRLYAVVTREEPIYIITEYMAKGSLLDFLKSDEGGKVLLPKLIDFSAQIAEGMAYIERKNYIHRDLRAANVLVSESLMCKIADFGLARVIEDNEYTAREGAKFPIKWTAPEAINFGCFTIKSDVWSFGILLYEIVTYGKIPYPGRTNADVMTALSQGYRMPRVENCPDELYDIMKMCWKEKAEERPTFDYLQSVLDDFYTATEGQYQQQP
Sequence of Lck enzyme (P06239 whole entry): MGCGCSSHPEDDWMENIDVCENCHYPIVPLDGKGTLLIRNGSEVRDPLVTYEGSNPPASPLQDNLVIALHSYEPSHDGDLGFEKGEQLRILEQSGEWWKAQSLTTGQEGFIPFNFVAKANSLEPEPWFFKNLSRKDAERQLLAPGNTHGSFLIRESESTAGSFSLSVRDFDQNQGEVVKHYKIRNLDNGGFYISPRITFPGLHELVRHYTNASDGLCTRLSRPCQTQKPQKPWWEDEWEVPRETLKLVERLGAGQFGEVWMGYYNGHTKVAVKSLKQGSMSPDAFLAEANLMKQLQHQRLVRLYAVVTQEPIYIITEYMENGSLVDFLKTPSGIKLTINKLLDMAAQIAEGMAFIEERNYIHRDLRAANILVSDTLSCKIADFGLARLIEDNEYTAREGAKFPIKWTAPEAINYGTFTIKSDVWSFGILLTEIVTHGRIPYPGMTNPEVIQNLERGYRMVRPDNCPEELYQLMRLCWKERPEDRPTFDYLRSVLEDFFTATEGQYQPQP

What is called EC50 is the concentration needed to bring the measured effect to its halfway point. On to `CCCC#CC(=O)N1CCC[C@H]1c1nc(-c2ccc(C(=O)Nc3ccccn3)cc2)c2c(N)nccn12` [Example 36, (S)-4-(8-Amino-3-(1-hex-2-ynoylpyrrolidin-2-yl)imidazo[1,5-a]pyrazin-1-yl)-N-(pyridin-2-yl)benzamide], for which the EC50 on Lyn enzyme is at least 1 µM; at FynT enzyme, at least 1000 nM; at Btk enzyme (His-Btk) (setting [1]), below 10 nM; on Src enzyme it was at least 1000 nM; at Lck enzyme, at least 1 µM.
As to `C=CC(=O)N1CCCCCC1c1nc(-c2ccc(C(=O)Nc3ccccn3)cc2)c2c(N)nccn12` (stereo not drawn) [Example 37, 4-(3-(1-Acrloylazepan-2-yl)-8-aminoimidazo[1,5-a]pyrazin-1-yl)-N-(pyridin-2-yl)benzamide], the EC50 was at least 1 µM on Lyn enzyme; at least 1000 nM on FynT enzyme; below 10 nM at Btk enzyme (His-Btk) (setting [1]); at least 1000 nM at Src enzyme; at least 1 µM at Lck enzyme.
Take `CC#CC(=O)N1CCOC[C@H]1c1nc(-c2ccc(C(=O)Nc3ccccn3)cc2)c2c(N)nccn12` [Example 38, (R)-4-(8-Amino-3-(4-but-2-ynoylmorpholin-3-yl)imidazo[1,5-a]pyrazin-1-yl)-N-(pyridin-2-yl)benzamide]: the EC50 was at least 1 µM on Lyn enzyme; at least 1000 nM at FynT enzyme; below 10 nM on Btk enzyme (His-Btk) (setting [1]); at least 1000 nM at Src enzyme; at least 1 µM on Lck enzyme.
`CC#CC(=O)N(C)[C@@H](C)c1nc(-c2ccc(C(=O)Nc3cc(C(F)(F)F)ccn3)cc2)c2c(N)nccn12` [Example 39, (S)-4-(8-amino-3-(1-(N-methylbut-2-ynamido)ethyl)imidazo[1,5-a]pyrazin-1-yl)-N-(4-(trifluoromethyl)pyridin-2-yl)benzamide]: the concentration giving a half-maximal response (EC50) is at least 1 µM at Lyn enzyme; at least 1000 nM on FynT enzyme; below 10 nM at Btk enzyme (His-Btk) (setting [1]); at least 1000 nM at Src enzyme; at least 1 µM on Lck enzyme.
For the compound `CN(C)CC#CC(=O)N1CCC[C@H]1c1nc(-c2ccc(C(=O)Nc3ccccn3)cc2)c2c(N)nccn12` [Example 40, (S)-4-(8-Amino-3-(1-(4-(dimethylamino)but-2-ynoyl)pyrrolidin-2-yl)imidazo[1,5-a]pyrazin-1-yl)-N-(pyridin-2-yl)benzamide], the EC50 at Lyn enzyme was at least 1 µM; on FynT enzyme, at least 1000 nM; on Btk enzyme (His-Btk), 10 to 100 nM; at Src enzyme, at least 1000 nM; on Lck enzyme, at least 1 µM. For the same compound, the “EC50 Btk activity values” on Btk enzyme (His-Btk) (setting [2]) is recorded as below 100 nM.
Consider `COCC#CC(=O)N1CCC[C@H]1c1nc(-c2ccc(C(=O)Nc3ccccn3)cc2)c2c(N)nccn12` [Example 41, (S)-4-(8-Amino-3-(1-(4-methoxybut-2-ynoyl)pyrrolidin-2-yl)imidazo[1,5-a]pyrazin-1-yl)-N-(pyridin-2-yl)benzamide], for which the EC50 was at least 1 µM on Lyn enzyme; at least 1000 nM on FynT enzyme; 10 to 100 nM at Btk enzyme (His-Btk); at least 1000 nM at Src enzyme; at least 1 µM on Lck enzyme. Moreover, the “EC50 Btk activity values” on Btk enzyme (His-Btk) (setting [2]) was below 100 nM.
For `C=CC(=O)N1CCC[C@H]1c1nc(-c2ccc(C(=O)Nc3cc(F)ccn3)cc2)c2c(N)nccn12` [Example 42, (S)-4-(3-(1-acryloylpyrrolidin-2-yl)-8-aminoimidazo[1,5-a]pyrazin-1-yl)-N-(4-fluoropyridin-2-yl)benzamide], the concentration for a half-maximal effect (EC50) is at least 1 µM at Lyn enzyme; at least 1000 nM on FynT enzyme; below 10 nM on Btk enzyme (His-Btk) (setting [1]); at least 1000 nM at Src enzyme; at least 1 µM on Lck enzyme.
For `C=CC(=O)N1CCC[C@H]1c1nc(-c2ccc(C(=O)Nc3cc(N4CCCC4)ccn3)cc2)c2c(N)nccn12` [Example 43, (S)-4-(3-(1-acryloylpyrrolidin-2-yl)-8-aminoimidazo[1,5-a]pyrazin-1-yl)-N-(4-(pyrrolidin-1-yl)pyridin-2-yl)benzamide], the concentration for a half-maximal effect (EC50) is at least 1 µM at Lyn enzyme; at least 1000 nM at FynT enzyme; below 10 nM on Btk enzyme (His-Btk) (setting [1]); at least 1000 nM on Src enzyme; at least 1 µM at Lck enzyme.
Take `CC#CC(=O)N1CCCC[C@H]1c1nc(-c2ccc(C(=O)Nc3cc(F)ccn3)cc2)c2c(N)nccn12` [Example 44, (S)-4-(8-amino-3-(1-but-2-ynoylpiperidin-2-yl)imidazo[1,5-a]pyrazin-1-yl)-N-(4-fluoropyridin-2-yl)benzamide]: the half-maximal effective concentration (EC50) at Lyn enzyme was at least 1 µM; on FynT enzyme it was at least 1000 nM; at Btk enzyme (His-Btk) (setting [1]), below 10 nM; on Src enzyme, at least 1000 nM; on Lck enzyme it was at least 1 µM.
Regarding `CC#CC(=O)N1CCCC[C@H]1c1nc(-c2ccc(C(=O)Nc3ccccn3)cc2)c2c(N)nccn12` [Example 45, (S)-4-(8-amino-3-(1-but-2-ynoylpiperidin-2-yl)imidazo[1,5-a]pyrazin-1-yl)-N-(pyridin-2-yl)benzamide], the 50% effective concentration (EC50) was at least 1 µM on Lyn enzyme; at least 1000 nM at FynT enzyme; below 10 nM on Btk enzyme (His-Btk) (setting [1]); at least 1000 nM on Src enzyme; at least 1 µM on Lck enzyme.
`C=CC(=O)N1CCCC[C@H]1c1nc(-c2ccc(C(=O)Nc3ccccn3)cc2)c2c(N)nccn12` [Example 46, (S)-4-(3-(1-acryloylpiperidin-2-yl)-8-aminoimidazo[1,5-a]pyrazin-1-yl)-N-(pyridin-2-yl)benzamide]: the EC50 at Lyn enzyme is at least 1 µM; on FynT enzyme, at least 1000 nM; on Btk enzyme (His-Btk) (setting [1]), below 10 nM; on Src enzyme, at least 1000 nM; at Lck enzyme, at least 1 µM.
On to `CC#CC(=O)N1CCC[C@H]1c1nc(-c2ccc(C(=O)Nc3cc(CCC)ccn3)cc2)c2c(N)nccn12` [Example 47, (S)-4-(8-amino-3-(1-but-2-ynoylpyrrolidin-2-yl)imidazo[1,5-a]pyrazin-1-yl)-N-(4-propylpyridin-2-yl)benzamide], for which the EC50 at Lyn enzyme is at least 1 µM; on FynT enzyme, at least 1000 nM; at Btk enzyme (His-Btk) (setting [1]) it was below 10 nM; on Src enzyme it was at least 1000 nM; at Lck enzyme it was at least 1 µM.
In the case of `CCCc1ccnc(NC(=O)c2ccc(-c3nc([C@H](C)N(C)C(=O)/C=C/COC)n4ccnc(N)c34)cc2)c1` [Example 48, (S,E)-4-(8-amino-3-(1-(4-methoxy-N-methylbut-2-enamido)ethyl)imidazo[1,5-a]pyrazin-1-yl)-N-(4-propylpyridin-2-yl)benzamide], the concentration for a half-maximal effect (EC50) on Lyn enzyme was at least 1 µM; at FynT enzyme, at least 1000 nM; on Btk enzyme (His-Btk) (setting [1]), below 10 nM; at Src enzyme it was at least 1000 nM; at Lck enzyme it was at least 1 µM.
With `C=CS(=O)(=O)N1CCCC[C@H]1c1nc(-c2ccc(C(=O)Nc3cc(CCC)ccn3)cc2)c2c(N)nccn12` [Example 49, (S)-4-(8-amino-3-(1-(vinylsulfonyl)piperidin-2-yl)imidazo[1,5-a]pyrazin-1-yl)-N-(4-propylpyridin-2-yl)benzamide], the EC50 was at least 1 µM on Lyn enzyme; at least 1000 nM at FynT enzyme; below 10 nM on Btk enzyme (His-Btk) (setting [1]); at least 1000 nM on Src enzyme; at least 1 µM at Lck enzyme.
Turning to `CC#CC(=O)N1CCC[C@H]1c1nc(-c2ccc(C(=O)Nc3ccccn3)c(F)c2)c2c(N)nccn12` [Example 50, (S)-4-(8-amino-3-(1-but-2-ynoylpyrrolidin-2-yl)imidazo[1,5-a]pyrazin-1-yl)-2-fluoro-N-(pyridin-2-yl)benzamide], the concentration for a half-maximal effect (EC50) at Lyn enzyme is at least 1 µM; at FynT enzyme, at least 1000 nM; on Btk enzyme (His-Btk) it was 10 to 100 nM; on Src enzyme it was at least 1000 nM; on Lck enzyme, at least 1 µM. For the same compound, the “EC50 Btk activity values” on Btk enzyme (His-Btk) (setting [2]) is recorded as below 100 nM.
Take `COC/C=C/C(=O)N1CCC[C@H]1c1nc(-c2ccc(C(=O)Nc3cc(OC)ccn3)cc2)c2c(N)nccn12` [Example 51, (S,E)-4-(8-amino-3-(1-(4-methoxybut-2-enoyl)pyrrolidin-2-yl)imidazo[1,5-a]pyrazin-1-yl)-N-(4-methoxypyridin-2-yl)benzamide]: the half-maximal effective concentration (EC50) was at least 1 µM at Lyn enzyme; at least 1000 nM on FynT enzyme; 10 to 100 nM at Btk enzyme (His-Btk); at least 1000 nM at Src enzyme; at least 1 µM at Lck enzyme. Besides, the “EC50 Btk activity values” on Btk enzyme (His-Btk) (setting [2]) is listed as below 100 nM.
For `COC/C=C/C(=O)N1CCC[C@H]1c1nc(-c2ccc(C(=O)Nc3ccccn3)c(F)c2)c2c(N)nccn12` [Example 52], the half-maximal effective concentration (EC50) at Lyn enzyme is at least 1 µM; on FynT enzyme, at least 1000 nM; on Btk enzyme (His-Btk), 100 to 1000 nM; at Src enzyme, at least 1000 nM; at Lck enzyme, at least 1 µM. Further, at Btk enzyme (His-Btk) (setting [3]), the “EC50 Btk activity values” was below 1000 nM.
As to `COC/C=C/C(=O)N1CCC[C@H]1c1nc(-c2ccc(C(=O)Nc3cc(F)ccn3)cc2)c2c(N)nccn12` [Example 53, (S,E)-4-(8-amino-3-(1-(4-methoxybut-2-enoyl)pyrrolidin-2-yl)imidazo[1,5-a]pyrazin-1-yl)-N-(4-fluoropyridin-2-yl)benzamide], the concentration giving a half-maximal response (EC50) at Lyn enzyme was at least 1 µM; at FynT enzyme, at least 1000 nM; at Btk enzyme (His-Btk), 100 to 1000 nM; on Src enzyme, at least 1000 nM; at Lck enzyme it was at least 1 µM. Also, the “EC50 Btk activity values” at Btk enzyme (His-Btk) (setting [3]) was below 1000 nM.
